The target of one assay is His-Brd4(44-477) (Homo sapiens (Human), UniProt O60885). In words: TR-FRET in-vitro binding assay for BRD4. Conditions: biochemical. The method in brief:
(§1)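 Eight-point dilution series tested against in-house His-BRD2(60-472), BRD3(20-477) or BRD4(44-477) (45 nM in dispensed solution) binding acetyl-histone H4 (AcK5,8,12,16; 60 nM in dispensed solution). Incubation 35 min at 30 °C, pH 7.5 HEPES buffer; detection by TR-FRET using Eu-anti-His6 and streptavidin-allophycocyanin.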

For a further assay, the target named is His-Brd3(20-477) (Homo sapiens (Human), UniProt Q15059). The assay is described as follows: TR-FRET in-vitro binding assay for BRD3. Conditions: biochemical. The method in brief: as §1
In general terms: Time-resolved FRET reads energy transfer from a long-lived donor to a nearby acceptor.

Another assay addresses His-Brd2(60-472) (Homo sapiens (Human), UniProt P25440). The assay is described as follows: TR-FRET in-vitro binding assay for BRD2. Conditions: biochemical. The method in brief:
as §1

For another assay, the system named is K-562 cells. The assay is described as follows: Cell growth inhibition assay (CellTiter-Glo), K-562. The assay is classed as cell-based, human. Conditions: Homo sapiens, K562, read-out: K-562 TGI. The method in brief:
(§2)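 Compounds tested as 3-fold dilution series starting at 10 μM (DMSO 0.1% final); viability read by cellular ATP (CTG luminescence) at 37° C. Signal corrected for no-cell background and a day-0 plate, scaled −100% to 100%; four-parameter fitting gives IC50 and TGI.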

Assay [1] concerns the target nuclear BRD4-NUT foci in HCC2494 NUT midline carcinoma cells (Homo sapiens (Human), UniProt O60885+Q86Y26). In words: Nut-foci formation assay. Conditions: 24 hours, read-out: HCS Brd4-NUT IC50. The class given is cell-based. As for the experimental part:
HCC2494 NUT midline carcinoma cells (expressing BRD4-NUT-fusion) were obtained from the University of Texas Southwestern and cultured in RPMI-1640 medium containing 10% Foetal Calf Serum at 37° C. in a humidified 5% CO2 incubator.
Compound-mediated inhibition of BRD4 activity was monitored by quantification of the number and intensity of nuclear BRD4-NUT foci using automated immunofluorescence microscopy. Briefly, 5000 cells in 20 μL fresh medium were seeded into Poly-D-Lysine-precoated 384-well plates and incubated overnight at 37° C. and 5% CO2, followed by addition of 5 μl medium containing compound dilutions at 5-fold their final intended concentration. Dose-response effects were assessed by 3-fold serial dilutions of the test compound, starting at 10 μM. Following incubation of the cells for 24 hours at 37° C. and 5% CO2, the cells were fixed by incubation with 3.7% formaldehyde for 10 min, followed by immunofluorescence staining using rabbit anti-NUT (Cell Signaling Technologies, Cat#3625) as primary, and AlexaFluor488-labeled goat anti-rabbit (Invitrogen, Cat#A11008) as secondary antibody (latter complemented with 1 μg/mL Hoechst33342 as DNA dye). Assay plates were imaged using the appropriate filter sets on the Cellomics VTi automated fluorescence microscopy platform (ThermoFisher Scientific) and the population average of the number of NUT-foci per nucleus is quantified using the Cellomics Spot Detection BioApplication image analysis algorithm (ThermoFisher Scientific). The effect of a particular test compound concentration on NUT-foci number and intensity is expressed as percentage of the value obtained for cells treated with vehicle only (DMSO, 0.1% final concentration), which was set as 100. Compound concentrations leading to half-maximal (IC50) inhibition of the aforementioned readout parameters were determined using standard four parameter curve fitting.

The next assay deals with THP-1 cells. The assay is described as follows: Cell growth inhibition assay (CellTiter-Glo), THP-1. The class given is cell-based. Conditions: Homo sapiens, read-out: THP-1 TGI. The method in brief:
as §2
(Cellular ATP, detected with luciferase, serves as a proxy for viable cell number.)

The next assay concerns MV-4-11 cells. The assay is described as follows: Cell growth inhibition assay (CellTiter-Glo), MV-4-11. The assay is classed as cell-based. Conditions: Homo sapiens, MV4-11, read-out: MV-4-11 TGI. The method in brief:
as §2

Sequence of His-Brd2(60-472) (P25440 60-472): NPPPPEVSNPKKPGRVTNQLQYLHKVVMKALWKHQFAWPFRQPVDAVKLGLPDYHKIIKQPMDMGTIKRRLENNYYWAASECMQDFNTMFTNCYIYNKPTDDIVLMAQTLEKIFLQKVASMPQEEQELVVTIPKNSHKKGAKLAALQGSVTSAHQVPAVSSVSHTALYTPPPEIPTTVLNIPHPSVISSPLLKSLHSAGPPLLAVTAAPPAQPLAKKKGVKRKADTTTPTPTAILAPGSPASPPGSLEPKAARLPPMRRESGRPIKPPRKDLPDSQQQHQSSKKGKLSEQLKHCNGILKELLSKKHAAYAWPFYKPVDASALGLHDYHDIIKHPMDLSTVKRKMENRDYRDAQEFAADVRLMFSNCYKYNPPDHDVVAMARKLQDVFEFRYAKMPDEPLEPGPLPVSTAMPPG
Sequence of His-Brd3(20-477) (Q15059 20-477): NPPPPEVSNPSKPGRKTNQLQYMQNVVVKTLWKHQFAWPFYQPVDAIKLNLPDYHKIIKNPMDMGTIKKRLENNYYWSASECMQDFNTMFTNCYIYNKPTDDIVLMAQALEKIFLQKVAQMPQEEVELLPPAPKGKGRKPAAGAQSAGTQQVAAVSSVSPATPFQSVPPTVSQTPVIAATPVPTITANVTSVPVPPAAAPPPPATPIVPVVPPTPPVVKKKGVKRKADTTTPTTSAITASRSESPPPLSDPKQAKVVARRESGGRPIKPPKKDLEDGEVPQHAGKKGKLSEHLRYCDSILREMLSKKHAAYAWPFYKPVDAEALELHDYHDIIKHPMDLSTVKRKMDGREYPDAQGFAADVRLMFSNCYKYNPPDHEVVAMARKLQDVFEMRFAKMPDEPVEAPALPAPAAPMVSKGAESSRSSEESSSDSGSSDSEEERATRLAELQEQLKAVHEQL

For the compound `Cc1cc(N2C(=O)c3nn(C4CN(C)C4)c(C)c3C2c2ccc(Cl)cc2)cn(C)c1=O` (centres unmarked) [Example 139, 4-(4-chlorophenyl)-5-(1,5-dimethyl-6-oxo-1,6-dihydropyridin-3-yl)-3-methyl-2-(1-methylazetidin-3-yl)-4,5-dihydropyrrolo[3,4-c]pyrazol-6(2H)-one], the IC50 (commonly the midpoint of a concentration-inhibition curve) is 190 nM on His-Brd4(44-477), 120 nM at His-Brd3(20-477), 160 nM at His-Brd2(60-472) and 366 nM in assay [1]. For the same compound, the figures for the IC (total growth inhibition) in the assay on K-562 cells, in the assay with THP-1 cells and in the assay on MV-4-11 cells were over 10 µM, 0.399 µM and 0.107 µM, respectively.

Take `CNC(=O)n1nc2c(c1C)C(c1ccc(Cl)cc1)N(c1cc(C)c(=O)n(C)c1)C2=O` (centres unmarked) [Example 144, 4-(4-chlorophenyl)-5-(1,5-dimethyl-6-oxo-1,6-dihydropyridin-3-yl)-N,3-dimethyl-6-oxo-5,6-dihydropyrrolo[3,4-c]pyrazole-2(4H)-carboxamide]: the half-maximal inhibitory concentration (IC50) at His-Brd4(44-477) is 150 nM; on His-Brd3(20-477), 140 nM; at His-Brd2(60-472), 160 nM; in assay [1], 134 nM. The IC (total growth inhibition) with K-562 cells is over 10 µM; in the assay with THP-1 cells, 0.361 µM; with MV-4-11 cells, 0.107 µM.

On to `CNC(=O)n1nc2c(c1C)C(c1ccc(Cl)cc1)N(c1cc(C)c3nnc(C)n3c1)C2=O` (centres unmarked) [Example 146, 4-(4-chlorophenyl)-5-(3,8-dimethyl-[1,2,4]triazolo[4,3-a]pyridin-6-yl)-N,3-dimethyl-6-oxo-5,6-dihydropyrrolo[3,4-c]pyrazole-2(4H)-carboxamide], for which the IC50 was 150 nM on His-Brd4(44-477), 200 nM on His-Brd3(20-477), 190 nM on His-Brd2(60-472) and 91 nM in assay [1]. Also, the IC (total growth inhibition) is over 10 µM in the assay with K-562 cells, 0.283 µM in the assay with THP-1 cells and 0.0546 µM in the assay on MV-4-11 cells.

Regarding `CCc1nn(C(=O)N(C)C)c2c1C(c1ccc(Cl)cc1)N(c1cc(C)c(=O)n(C)c1)C2=O` (centres unmarked) [Example 147, 4-(4-chlorophenyl)-5-(1,5-dimethyl-6-oxo-1,6-dihydropyridin-3-yl)-3-ethyl-N,N-dimethyl-6-oxo-5,6-dihydropyrrolo[3,4-c]pyrazole-1(4H)-carboxamide], the 50% inhibitory concentration (IC50) came out at 130 nM at His-Brd4(44-477), 120 nM on His-Brd3(20-477), 140 nM on His-Brd2(60-472) and 73.1 nM in assay [1]. The IC (total growth inhibition) in the assay on K-562 cells is over 10 µM; in the assay on THP-1 cells it was 0.365 µM; in the assay on MV-4-11 cells, 0.1 µM.

On to `CNc1cc(N2C(=O)c3c(c(C)nn3C3CC3)[C@H]2c2ccc(Cl)cc2)nn2c(C)nnc12` [Example 161, (R)-4-(4-chlorophenyl)-1-cyclopropyl-3-methyl-5-(3-methyl-8-(methylamino)-[1,2,4]triazolo[4,3-b]pyridazin-6-yl)-4,5-dihydropyrrolo[3,4-c]pyrazol-6(1H)-one], for which the IC50 came to 21 nM at His-Brd4(44-477), 24 nM on His-Brd3(20-477), 33 nM at His-Brd2(60-472) and 40.1 nM in assay [1]. In addition, the IC (total growth inhibition) was over 10 µM with K-562 cells, 0.152 µM in the assay on THP-1 cells and 0.102 µM in the assay with MV-4-11 cells.

The record behind these values is US8975417B2, “Pyrazolopyrrolidine derivatives and their use in the treatment of disease” (Novartis AG, priority 2013, dated 2015).
